Laboratory results from patent US20040048790A1, “Inducing cellular immune responses to p53 using peptide and nucleic acid compositions” (priority 1999, published 2004).
No end group written: not given here.

Assays:
DRB1*0301 (DR3) = DRB1*0301 (DR3) (Homo sapiens, UniProt P01903+P01911, A100K/A102G/A103R/A169T/F55Y/I96L/K41T/L162R/M171V/P40S/Q125H/Q178H/Q39Y/R42S/S66N/T106N/T262R/W38E/Y61H); assay type: binding
B*5401 = B*5401 (Homo sapiens, UniProt P01889, A329T/C349S/D138N/D201E/E176V/E187T/E204Q/E69G/I76V/K202T/L119W/R155S/R180L/S121T/S35A/S48A/V127L/V306I/V36M/Y140L); test: biochemical
B*3501 = B*3501 (Homo sapiens, UniProt P01889, A329T/A93T/A95T/C349S/D201E/D98Y/E176V/E187L/E204Q/E69T/I218V/K202T/L119I/Q94N/R155S/R180L/S121R/S35A/S48A/T118I/V127L/V306I/V36M/Y140S/Y91F); test: biochemical
B*5301 = B*5301 (Homo sapiens, UniProt P01889, A329T/A93T/A95T/C349S/D201E/D98Y/E176V/E187L/E204Q/E69T/G107R/I218V/K202T/L105A/L119I/N104I/Q94N/R106L/R155S/R180L/S101N/S121R/S35A/S48A/T118I/V127L/V306I/V36M/Y140S/Y91F); test: biochemical
HLA-B*0702 = HLA-B*0702 (Homo sapiens, UniProt P01889); test: biochemical

Chain of DRB1*0301 (DR3) (P01903 26-254 limits assumed, other chains not shown): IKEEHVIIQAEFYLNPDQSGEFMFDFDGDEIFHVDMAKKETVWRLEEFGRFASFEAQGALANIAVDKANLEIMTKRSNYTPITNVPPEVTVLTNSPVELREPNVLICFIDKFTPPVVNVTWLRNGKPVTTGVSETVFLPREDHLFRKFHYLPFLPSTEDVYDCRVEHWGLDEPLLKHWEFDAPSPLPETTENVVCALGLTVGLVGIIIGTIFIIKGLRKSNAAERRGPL

Row | Compound | IC50 (DRB1*0301 (DR3)) [nM] | IC50 (B*5401) [nM] | IC50 (B*3501) [nM] | IC50 (B*5301) [nM] | IC50 (HLA-B*0702) [nM]
1 | CC[C@H](C)[C@H](NC(=O)[C@H](CCC(N)=O)NC(=O)[C@H](CC(C)C)NC(=O)[C@@H](NC(=O)[C@H](Cc1ccccc1)NC(=O)[C@H](Cc1ccc(O)cc1)NC(=O)[C@H](CCC(=O)O)NC(=O)CNC(=O)[C@H](CC(=O)O)NC(=O)[C@H](CC(C)C)NC(=O)[C@@H]1CCCN1C(=O)[C@H](CCCCN)NC(=O)[C@@H](N)CCCCN)[C@@H](C)O)C(=O)N[C@@H](CCCNC(=N)N)C(=O)NCC(=O)O | > 10000 |  |  |  | 
2 | CC[C@H](C)[C@H](NC(=O)[C@H](C)NC(=O)[C@H](CCC(N)=O)NC(=O)[C@H](CO)NC(=O)[C@@H]1CCCN1C(=O)[C@H](CC(C)C)NC(=O)[C@@H]1CCCN1C(=O)[C@@H](N)Cc1ccccc1)C(=O)O [p53.33.F1] |  | 83 | 720 |  | 
3 | CC(C)C[C@H](NC(=O)[C@@H]1CCCN1C(=O)[C@H](Cc1c[nH]c2ccccc12)NC(=O)[C@H](CO)NC(=O)[C@@H]1CCCN1C(=O)[C@H](C)NC(=O)[C@@H]1CCCN1C(=O)[C@@H](N)Cc1ccccc1)C(=O)O [p53.86.F1] |  | 9.1 | 3.1 | 4 | 10
4 | FPAPSWPI [p53.86.F118] |  | 1.6 | 4.8 | 3.3 | 120
5 | CC[C@H](C)[C@H](NC(=O)[C@@H]1CCCN1C(=O)[C@H](C)NC(=O)[C@H](C)NC(=O)[C@@H]1CCCN1C(=O)[C@@H](NC(=O)[C@@H]1CCCN1C(=O)[C@H](C)NC(=O)[C@H](C)NC(=O)[C@@H]1CCCN1C(=O)[C@@H](N)Cc1ccccc1)[C@@H](C)O)C(=O)O [p53.76.F1111] |  | 15 |  | 3210 | 
6 | CC[C@H](C)[C@H](NC(=O)[C@@H]1CCCN1C(=O)[C@H](Cc1c[nH]c2ccccc12)NC(=O)[C@H](CO)NC(=O)[C@@H]1CCCN1C(=O)[C@H](C)NC(=O)[C@@H]1CCCN1C(=O)[C@H](C)NC(=O)[C@@H]1CCCN1C(=O)[C@@H](N)Cc1ccccc1)C(=O)O [p53.84.F1110] |  | 1.2 |  | 42 | 13
7 | CC[C@H](C)[C@H](NC(=O)[C@@H](NC(=O)[C@@H](N)CC(C)C)[C@@H](C)O)C(=O)N[C@H](C(=O)N[C@H](C(=O)N[C@@H](CC(C)C)C(=O)N[C@@H](CCC(=O)O)C(=O)N[C@@H](CC(=O)O)C(=O)N[C@@H](CO)C(=O)N[C@@H](CO)C(=O)NCC(=O)N[C@@H](CC(N)=O)C(=O)N[C@@H](CC(C)C)C(=O)N[C@@H](CC(C)C)C(=O)NCC(=O)O)[C@@H](C)O)[C@@H](C)CC | > 10000 |  |  |  | 
8 | CC[C@H](C)[C@H](NC(=O)[C@@H]1CCCN1C(=O)[C@H](C)NC(=O)[C@H](C)NC(=O)[C@@H]1CCCN1C(=O)[C@@H](NC(=O)[C@@H]1CCCN1C(=O)[C@@H](N)Cc1ccccc1)[C@@H](C)O)C(=O)O [p53.79.F118] |  | 7.7 | 5140 | 6200 | 90
9 | CC(C)C[C@H](NC(=O)[C@H](CCC(N)=O)NC(=O)[C@@H](NC(=O)[C@@H]1CCCN1)C(C)C)C(=O)N[C@@H](Cc1c[nH]c2ccccc12)C(=O)N[C@H](C(=O)N[C@@H](CC(=O)O)C(=O)N[C@@H](CO)C(=O)N[C@H](C(=O)N1CCC[C@H]1C(=O)N1CCC[C@H]1C(=O)N1CCC[C@H]1C(=O)NCC(=O)N[C@H](C(=O)N[C@@H](CCCNC(=N)N)C(=O)O)[C@@H](C)O)[C@@H](C)O)C(C)C | > 10000 |  |  |  | 
10 | CC(C)C[C@H](NC(=O)[C@@H]1CCCN1C(=O)[C@H](Cc1c[nH]c2ccccc12)NC(=O)[C@H](CO)NC(=O)[C@@H]1CCCN1C(=O)[C@@H](N)Cc1ccccc1)C(=O)N[C@@H](CO)C(=O)N[C@@H](CO)C(=O)N[C@@H](CO)C(=O)N[C@H](C(=O)O)C(C)C [p53.88.F1] |  | 0.3 | 72 | 93 | 3.2
11 | CC[C@H](C)[C@H](NC(=O)[C@H](CO)NC(=O)[C@H](CO)NC(=O)[C@H](CO)NC(=O)[C@H](CC(C)C)NC(=O)[C@@H]1CCCN1C(=O)[C@H](Cc1c[nH]c2ccccc12)NC(=O)[C@H](CO)NC(=O)[C@@H]1CCCN1C(=O)[C@@H](N)Cc1ccccc1)C(=O)O [p53.88.F1110] |  | 2.4 | 100 | 8.5 | 5.5
12 | CC[C@H](C)[C@H](NC(=O)[C@H](C)NC(=O)[C@@H](N)CCSC)C(=O)N[C@@H](Cc1ccc(O)cc1)C(=O)N[C@@H](CCCCN)C(=O)N[C@@H](CCC(N)=O)C(=O)N[C@@H](CO)C(=O)N[C@@H](CCC(N)=O)C(=O)N[C@@H](Cc1c[nH]cn1)C(=O)N[C@@H](CCSC)C(=O)N[C@H](C(=O)N[C@@H](CCC(=O)O)C(=O)N[C@H](C(=O)N[C@H](C(=O)N[C@@H](CCCNC(=N)N)C(=O)O)C(C)C)C(C)C)[C@@H](C)O | > 10000 |  |  |  | 
13 | CC[C@H](C)[C@H](NC(=O)[C@H](CO)NC(=O)[C@@H]1CCCN1C(=O)[C@H](C)NC(=O)[C@@H]1CCCN1C(=O)[C@H](C)NC(=O)[C@@H]1CCCN1C(=O)[C@@H](N)Cc1ccccc1)C(=O)O [p53.84.F118] |  | 6.7 | 327 | 131 | 
14 | CC[C@H](C)[C@H](NC(=O)[C@@H]1CCCN1C(=O)[C@@H](NC(=O)[C@@H]1CCCN1C(=O)[C@H](C)NC(=O)[C@H](C)NC(=O)[C@@H]1CCCN1C(=O)[C@H](C)NC(=O)[C@@H]1CCCN1C(=O)[C@@H](N)Cc1ccccc1)[C@@H](C)O)C(=O)O [p53.74.F1110] |  | 5.3 | 277 | 127 | 1.5
15 | CC[C@H](C)[C@H](NC(=O)[C@@H]1CCCN1C(=O)[C@@H]1CCCN1C(=O)[C@H](C)NC(=O)[C@H](C)NC(=O)[C@H](CCC(=O)O)NC(=O)[C@@H]1CCCN1C(=O)[C@H](CCSC)NC(=O)[C@H](CCCNC(=N)N)NC(=O)[C@@H]1CCCN1C(=O)[C@@H](N)Cc1ccccc1)C(=O)O [p53.63.F1111] |  | 2.9 | 5540 | 5470 | 
16 | CC(C)C[C@H](NC(=O)[C@@H]1CCCN1C(=O)[C@H](Cc1c[nH]c2ccccc12)NC(=O)[C@H](CO)NC(=O)[C@@H]1CCCN1C(=O)[C@H](C)NC(=O)[C@@H]1CCCN1C(=O)[C@H](C)NC(=O)[C@@H]1CCCN1C(=O)[C@@H](N)Cc1ccccc1)C(=O)O [p53.84.F1] |  | 1.7 | 5.1 |  | 
17 | CC[C@H](C)[C@H](NC(=O)[C@H](CC(=O)O)NC(=O)[C@H](CC(=O)O)NC(=O)[C@@H]1CCCN1C(=O)[C@H](CO)NC(=O)[C@H](CC(C)C)NC(=O)[C@H](CCSC)NC(=O)[C@H](CC(C)C)NC(=O)[C@@H](N)CC(=O)O)C(=O)N[C@@H](CCC(=O)O)C(=O)N[C@@H](CCC(N)=O)C(=O)N[C@@H](Cc1c[nH]c2ccccc12)C(=O)N[C@@H](Cc1ccccc1)C(=O)N[C@H](C(=O)N[C@@H](CCC(=O)O)C(=O)O)[C@@H](C)O | > 10000 |  |  |  | 
18 | CC[C@H](C)[C@H](NC(=O)[C@@H](NC(=O)[C@@H](NC(=O)[C@H](CS)NC(=O)[C@H](CC(=O)O)NC(=O)[C@H](CO)NC(=O)CNC(=O)[C@@H](NC(=O)[C@H](CCC(=O)O)NC(=O)[C@@H]1CCCN1C(=O)[C@@H]1CCCN1)C(C)C)[C@@H](C)O)[C@@H](C)O)C(=O)N[C@@H](Cc1c[nH]cn1)C(=O)N[C@@H](Cc1ccc(O)cc1)C(=O)N[C@@H](CC(N)=O)C(=O)N[C@@H](Cc1ccc(O)cc1)C(=O)O | 7900 |  |  |  | 
19 | CC(C)C[C@H](NC(=O)[C@H](CCCCN)NC(=O)[C@H](Cc1c[nH]c2ccccc12)NC(=O)[C@H](CC(C)C)NC(=O)[C@H](CC(=O)O)NC(=O)[C@H](CO)NC(=O)[C@H](Cc1ccccc1)NC(=O)[C@@H](NC(=O)[C@H](CCC(=O)O)NC(=O)[C@H](CCC(N)=O)NC(=O)[C@H](CO)NC(=O)[C@H](CC(C)C)NC(=O)[C@@H]1CCCN1C(=O)[C@@H]1CCCN1C(=O)[C@@H](N)CCC(=O)O)[C@@H](C)O)C(=O)O | > 10000 |  |  |  | 
20 | CC[C@H](C)[C@H](NC(=O)[C@@H](NC(=O)[C@@H](NC(=O)[C@@H](NC(=O)[C@@H](NC(=O)[C@H](CC(C)C)NC(=O)[C@@H](NC(=O)[C@@H]1CCCN1C(=O)[C@@H](N)Cc1ccccc1)[C@@H](C)CC)[C@@H](C)O)[C@@H](C)CC)[C@@H](C)CC)[C@@H](C)O)C(=O)O [p53.249.F119] |  | 1.8 | 36 | 4 | 74
21 | FPILTIITL [p53.249.F1] |  | 5 | 8 | 7.2 | 6.5
22 | FPAAPTPAI [p53.76.F119] |  | 2.5 | 12 | 7.2 | 2.6
23 | CC[C@H](C)[C@H](NC(=O)[C@H](C)NC(=O)[C@@H]1CCCN1C(=O)[C@H](C)NC(=O)[C@@H]1CCCN1C(=O)[C@H](C)NC(=O)[C@@H](NC(=O)[C@@H]1CCCN1C(=O)[C@@H]1CCCN1C(=O)[C@@H](N)Cc1ccccc1)C(C)C)C(=O)O [p53.70.F1110] |  | 63 |  | 2910 | 290
24 | CC[C@H](C)[C@H](NC(=O)[C@@H]1CCCN1C(=O)[C@@H](NC(=O)[C@@H]1CCCN1C(=O)[C@H](C)NC(=O)[C@H](C)NC(=O)[C@@H]1CCCN1C(=O)[C@@H](N)Cc1ccccc1)[C@@H](C)O)C(=O)O [p53.76.F118] |  | 3.1 | 655 |  | 128
